Assay results: ChEMBL document CHEMBL4177563, “The medicinal chemistry of Chikungunya virus” (Bioorg Med Chem, 2017)
≈ marks a conversion by molar mass, not a printed value.

Assays:
Chikungunya virus [1] = test: Antiviral activity against Chikungunya virus LR2006 OPY1 infected in human MRC5 cells after 30 mins by indirect immunofluorescence analysis; assay type: functional, organism-based; conditions: LR2006 OPY1, MRC5, 0.5 h
[2] = Selectivity index, ratio of CC50 for human MRC5 cells to IC50 for Chikungunya virus LR2006 OPY1; assay type: toxicity; conditions: read-out: Ratio CC50/IC50
[3] = Cytotoxicity against human MRC5 cells assessed as reduction in cell viability after 48 hrs by neutral red staining-based microscopic analysis
Chikungunya virus [4] = test: Antiviral activity against Chikungunya virus LR2006 OPY1 infected in human MRC5 cells after 48 hrs by indirect immunofluorescence analysis; assay type: functional, organism-based; conditions: LR2006 OPY1, MRC5, 48 h
Chikungunya virus [5] = test: Antiviral activity against Chikungunya virus LR2006 OPY1 infected in human MRC5 cells after 60 mins by indirect immunofluorescence analysis; assay type: functional, organism-based; conditions: LR2006 OPY1, MRC5, 1 h
[6] = Cytotoxicity against African green monkey Vero cells assessed as reduction in cell viability after 18 hrs by neutral red staining-based microscopic analysis; conditions: chlorocebus sabaeus
[7] = Selectivity index, ratio of CC50 for African green monkey Vero cells to IC50 for Chikungunya virus LR2006 OPY1; assay type: toxicity; conditions: read-out: Ratio CC50/IC50
Chikungunya virus [8] = test: Antiviral activity against Chikungunya virus SGP011 infected in African green monkey BGM cells after 24 hrs by luciferase reporter gene assay; assay type: functional, organism-based
Chikungunya virus [9] = test: Antiviral activity against Chikungunya virus 899 assessed as inhibition of virus-induced cytopathogenic effect measured on day 5 post infection by MTS/PMS based microscopic analysis; assay type: functional, organism-based; conditions: Chikungunya virus, 899, 120 h
Chikungunya virus [10] = test: Antiviral activity against Chikungunya virus 899 by qRT-PCR analysis; assay type: functional, organism-based
Chikungunya virus [11] = test: Antiviral activity against Chikungunya virus 899 infected in African green monkey BGM cells assessed as reduction in viral infectious progeny after 48 hrs by titration assay; assay type: functional, organism-based; conditions: Chikungunya virus, 899, BGM
Chikungunya virus [12] = test: Antiviral activity against Chikungunya virus SGP011 by qRT-PCR analysis; assay type: functional, organism-based
Chikungunya virus [13] = test: Antiviral activity against Chikungunya virus SGP011 infected in African green monkey BGM cells assessed as reduction in viral infectious progeny after 48 hrs by titration assay; assay type: functional, organism-based
Chikungunya virus [14] = test: Antiviral activity against Chikungunya virus LR2006 OPY1 infected in African green monkey BGM cells after 24 hrs by luciferase reporter gene assay; assay type: functional, organism-based
Chikungunya virus [15] = test: Antiviral activity against Chikungunya virus CNR20235 infected in buffalo green monkey BGM cells after 24 hrs by luciferase reporter gene assay; assay type: functional, organism-based
Chikungunya virus [16] = test: Antiviral activity against Chikungunya virus infected in HEK293T cells assessed as reduction in infectious virus particle production by luciferase reporter gene assay; assay type: functional, organism-based; conditions: HEK-293T
Chikungunya virus [17] = test: Antiviral activity against Chikungunya virus S-27 assessed as viral titer interferon loading; assay type: functional
[18] = Cytotoxicity against African green monkey Vero cells assessed as reduction in cell viability; assay type: cell-based; conditions: chlorocebus sabaeus
Chikungunya virus [19] = test: Antiviral activity against Chikungunya virus infected in African green monkey Vero cells; assay type: functional, organism-based
Aedes aegypti [20] = test: Induction of oviposition deterrent activity in Aedes aegypti assessed as effective repellency at 30 ug/ml after 24 hrs by stereomicroscopic analysis relative to control; assay type: functional
Aedes aegypti [21] = test: Induction of oviposition deterrent activity in Aedes aegypti assessed as effective repellency at 40 ug/ml after 24 hrs by stereomicroscopic analysis relative to control; assay type: functional
Aedes aegypti [22] = test: Induction of oviposition deterrent activity in Aedes aegypti assessed as effective repellency at 50 ug/ml after 24 hrs by stereomicroscopic analysis relative to control; assay type: functional
Aedes aegypti [23] = test: Induction of oviposition deterrent activity in Aedes aegypti assessed as effective repellency at 20 ug/ml after 24 hrs by stereomicroscopic analysis relative to control; assay type: functional
Aedes aegypti [24] = test: Larvicidal activity against Aedes aegypti Paea assessed as mortality at 10 ug/ml after 24 hrs relative to control; assay type: functional
Aedes aegypti [25] = test: Larvicidal activity against Aedes aegypti Paea assessed as mortality at 5 ug/ml after 24 hrs relative to control; assay type: functional
Aedes aegypti [26] = test: Induction of oviposition deterrent activity in Aedes aegypti assessed as effective repellency at 10 ug/ml after 24 hrs by stereomicroscopic analysis relative to control; assay type: functional
Aedes aegypti [27] = test: Larvicidal activity against Aedes aegypti Paea assessed as mortality at 25 ug/ml after 24 hrs relative to control; assay type: functional
Aedes aegypti [28] = test: Larvicidal activity against Aedes aegypti Paea assessed as mortality after 24 hrs; assay type: functional, organism-based
Aedes aegypti [29] = test: Larvicidal activity against Aedes aegypti Paea assessed as mortality at 15 ug/ml after 24 hrs relative to control; assay type: functional
Aedes aegypti [30] = test: Larvicidal activity against Aedes aegypti Paea assessed as mortality at 20 ug/ml after 24 hrs relative to control; assay type: functional

With `CCOC(=O)c1c(CSc2ccccc2)n(C)c2cc(Br)c(O)c(CN(C)C)c12` [UMIFENOVIR] as the compound, how does the IC50 (Chikungunya virus [1]) read?
Its IC50 is 23.1 µM.

And the selectivity ratio [2]?
Its selectivity ratio is 36.

And the CC50 at 48 h [3]?
The CC50 at 48 h was 376 µM.

And the IC50 (Chikungunya virus [4])?
The IC50 was 12.2 µM.

What about the IC50 (Chikungunya virus [5]) of the same compound?
Its IC50 is 31.7 µM.

What about the CC50 at 18 h [6] of the same compound?
Its CC50 at 18 h is 680 µM.

What about the selectivity ratio [7] of the same compound?
The selectivity ratio was 28.

With `CC(=O)O[C@@]12C[C@@H](C)[C@@]3(O)[C@@H](C=C(CO)C[C@]4(O)C(=O)C(C)=C[C@@H]34)[C@@H]1C2(C)C` [PROSTRATIN] as the compound, how does the EC50 (Chikungunya virus [8]) read?
Its EC50 is 0.2 µM.

And the EC50 (Chikungunya virus [9])?
The EC50 was 8 µM.

What about the EC50 (Chikungunya virus [10]) of the same compound?
Its EC50 is 7.6 µM.

And the EC50 (Chikungunya virus [11])?
The EC50 was 7.1 µM.

And the EC50 (Chikungunya virus [12])?
Its EC50 is 0.3 µM.

What about the EC50 (Chikungunya virus [13]) of the same compound?
The EC50 was 0.4 µM.

What about the EC50 (Chikungunya virus [14]) of the same compound?
The EC50 was 0.2 µM.

What about the EC50 (Chikungunya virus [15]) of the same compound?
Its EC50 is 0.5 µM.

For `O=C(O[C@@H]1Cc2c(O)cc(O)cc2O[C@@H]1c1cc(O)c(O)c(O)c1)c1cc(O)c(O)c(O)c1` [EPIGALOCATECHIN GALLATE], which EC50 (Chikungunya virus [16]) is on record?
Its EC50 is 6.54 µg/mL (≈ 14.3 µM).

Which Activity (Chikungunya virus [17]) does the source give for `Sc1ncnc2nc[nH]c12` [MERCAPTOPURINE ANHYDROUS] here?
The Activity was 47 - 67 U/ml.

What does the source list for `CC/C(C)=C/C(=O)O[C@@H]1[C@H](C)C[C@H]2O[C@]1(O)[C@@H](O)[C@H]1CC[C@H](O1)C(C)(C)/C=C/[C@H](C)C2=O`?
CC50 [18]: 60.9 µg/mL (≈ 135 µM); EC50 (Chikungunya virus [19]): < 0.8 µg/mL

Which Activity (Aedes aegypti [20]) does the source give for `CC(C)=CCCC(C)c1ccc(C)cc1` (stereo unspecified) here?
The Activity was 80.87%.

What about the Activity (Aedes aegypti [21]) of the same compound?
Its Activity is 86%.

And the Activity (Aedes aegypti [22])?
The Activity was 89.99%.

What about the Activity (Aedes aegypti [23]) of the same compound?
Its Activity is 75.62%.

What about the Activity (Aedes aegypti [24]) of the same compound?
The Activity was 45.3%.

And the Activity (Aedes aegypti [25])?
Its Activity is 24.5%.

And the Activity (Aedes aegypti [26])?
The Activity was 70.28%.

What about the Activity (Aedes aegypti [27]) of the same compound?
Its Activity is 97.1%.

And the IC50 (Aedes aegypti [28])?
Its IC50 is 11.2 µg/mL (≈ 55.5 µM).

And the IC90 (Aedes aegypti [28])?
The IC90 was 22 µg/mL (≈ 109 µM).

And the Activity (Aedes aegypti [29])?
The Activity was 62.7%.

And the Activity (Aedes aegypti [30])?
Its Activity is 84.2%.
